Data as given in patent US20250032493A1, “Methods for Treating Diseases Using MALT1 Inhibitors” (RARIFIED BIOSCIENCES, INC., priority 2021, published 2025).
Entries after “also recorded” stand apart in the source; their conditions may differ.

Legend:
[1] = tested on: splenic Tregs; assay: Rat CIA model: splenic Treg levels; type: in vivo; details: for reduction in the Treg levels: in comparison to vehicle
Method: For isolation of synovial fluid prior to study termination, animals were anesthetized and the skin on the hind limbs were separated to ensure exposure of knee joint. A small incision was made near the top of the knee joint and the articular cavity was rinsed with 60 μl phosphate-buffered saline (PBS) for 2 time and ˜50-60 μl synovial fluid was collected. The synovial fluid samples were spun down, and the supernatant stored at −80° C. prior to cytokine analysis. At study termination, plasma was prepared from whole blood and stored at −80° C. prior to cytokine analysis and measurement of total and anti-collagen IgG. Single cell suspensions were prepared from harvested spleens following standard methods and Treg frequencies measured by flow cytometry-based immunophenotyping of freshly isolated cells.
Harvested spleens were homogenized in cold PBS and cellular debris removed by passing through a […] cell strainer. The cell suspension was centrifuged at 300×g for 5 min at 4° C. and the pellet was treated with 1×RBC lysis buffer per manufacturer's protocol (Thermofisher). The washed cell pellet was resuspended for a final concentration of 5-10×10^6 cells/ml and 100 μl of cell suspension was processed for immunophenotyping. […] Cells were washed with cold FACS wash buffer (BD) and fixed with 1×FoxP3/Transcription Factor Fixation Buffer (Thermofisher) for overnight at 4° C. […] Cells were washed 2-3× with the permeabilization and wash buffer as mentioned earlier, and finally resuspended in FACS wash buffer. Samples were acquired on a BD LSRFortessa flow cytometer and data analyzed using the FlowJo software (BD).

[2] = tested on: rat collagen induced arthritis (CIA) model; assay: Rat collagen-induced arthritis model: clinical score; details: for reduction in the clinical score: in comparison to the vehicle treatment
From the text: Adult female Lewis Rats (180-200 g body weight) were immunized subcutaneously with Type II bovine collagen/Incomplete Freund's Adjuvant emulsion on Day 0 and Day 7. On Day 14 rats were randomized based on clinical disease scores in different treatment groups. Rats received either once daily (q.d) dose of compounds via oral gavage or Vehicle (0.5% Carboxymethylcellulose-Na+0.5% Tween 80 in water, suspension) for 2 weeks. Naïve rats used as controls.

[3] = tested on: Tregs; assay: Naïve mice: Treg levels after 4 weeks of dosing; type: in vivo; details: 100 mg/kg dose, in comparison to vehicle control
Method: Mice were dosed for 4 weeks with REO-751 or REO-095 and splenocytes were analyzed for Treg levels. Specifically, REO-751 or REO-095 MALT1 inhibitors were dosed at one of 1 mg/kg (mpk), 10 mg/kg (mpk), or 100 mg/kg (mpk).

[4] = target: T1, MALT1 (Homo sapiens, UniProt Q9UDY8); assay: Example IC50 and IC90 values of MALT1 inhibitors (blood concentration targets); type: cell-based; details: example values, blood concentration target; read-out: IC90
T1 sequence (Q9UDY8 1-824): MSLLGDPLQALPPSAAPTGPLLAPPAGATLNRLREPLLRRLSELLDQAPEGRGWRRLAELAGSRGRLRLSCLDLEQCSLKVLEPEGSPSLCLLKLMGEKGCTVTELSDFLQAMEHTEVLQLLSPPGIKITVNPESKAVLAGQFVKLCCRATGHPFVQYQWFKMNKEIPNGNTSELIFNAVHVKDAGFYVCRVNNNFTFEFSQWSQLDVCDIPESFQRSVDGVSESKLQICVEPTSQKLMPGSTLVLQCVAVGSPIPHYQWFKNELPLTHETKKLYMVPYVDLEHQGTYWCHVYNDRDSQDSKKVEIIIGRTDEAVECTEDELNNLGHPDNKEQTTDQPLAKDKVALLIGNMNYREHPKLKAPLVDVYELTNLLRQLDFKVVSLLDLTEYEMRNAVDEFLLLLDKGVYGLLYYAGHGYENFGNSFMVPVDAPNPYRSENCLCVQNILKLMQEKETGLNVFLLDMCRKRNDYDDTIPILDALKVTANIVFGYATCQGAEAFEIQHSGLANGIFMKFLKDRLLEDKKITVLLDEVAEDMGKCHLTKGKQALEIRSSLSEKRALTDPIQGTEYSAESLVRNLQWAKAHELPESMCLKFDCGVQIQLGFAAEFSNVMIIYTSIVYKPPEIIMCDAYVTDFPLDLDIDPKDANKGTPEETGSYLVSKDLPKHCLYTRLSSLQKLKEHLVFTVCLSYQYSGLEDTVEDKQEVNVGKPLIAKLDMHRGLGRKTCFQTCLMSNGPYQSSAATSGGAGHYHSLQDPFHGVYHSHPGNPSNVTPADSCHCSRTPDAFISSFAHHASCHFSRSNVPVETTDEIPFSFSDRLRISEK
From the text: In various embodiments, the plasma PK profile of the MALT1 inhibitor refers to a time over an IC50 blood concentration target following administration to the subject. As used herein, a “time over an IC50 blood concentration target” refers to a period of time following administration in which a concentration of the MALT1 inhibitor in the subject's blood is above the IC50 value.
In various embodiments, the plasma PK profile of the MALT1 inhibitor refers to a time over an IC90 blood concentration target following administration to the subject. As used herein, a “time over an IC90 blood concentration target” refers to a period of time following administration in which a concentration of the MALT1 inhibitor in the subject's blood is above the IC90 value.

[5] = tested on: spleen TFH cells, GC B cells, Treg cells; assay: Mouse GVHD model: spleen cell populations (TFH, GC B cells, Tregs); type: in vivo, mice
From the text: Here, FIGS. 22C-22E show percentages of each cell population in spleen, as measured by flow cytometry.

[6] = Mouse GVHD model: pharmacokinetics; type: in vivo, mice; details: C57Bl/6, blood, oral; 100 mg/kg, on Day 55, mouse GVHD model; read-out: concentration at 24 hours post-administration
Method: (§1) At time=0, mice were dosed with 1) naive, 2) vehicle, 3) REO-751 MALT1 inhibitor (100 mg/kg), or 4) ruxolitinib (60 mg/kg). […] GVHD scores were determined by monitoring the behavior of the mice post-administration according to the following grading system.

[7] = target: T1, MALT1; assay: IC50 and Kd values of MALT1 inhibitors (FIG. 17C)
[8] = tested on: sclerodermatous GVHD (scGVHD) model; assay: Mouse GVHD (scGVHD) model: GVHD score and progression-free survival; type: in vivo, mice; details: 100 mg/kg orally once daily days 21-56, at the end (Day 56)
Method: In this example, REO-751 MALT1 inhibitor at a dose of 100 mg/kg was administered to mice of a graft versus host disease (GVHD) model to investigate the impact of the administration of the MALT1 inhibitor. The effects of MALT1 inhibitors were evaluated in scGVHD and delayed-type hypersensitivity (DTH) models. For the scGVHD model, bone marrow (1E7 cells) and splenocytes (4E6) from LP/J donors were transferred to C57Bl/6 recipients that had received 8.5. Gy of total irradiation on the previous day. For the DTH model, female Balb/c mice were immunized with keyhole limpet hemocyanin (KLH) subcutaneously on day 0 and challenged with KLH intradermally 7 days later.
as §1
FIGS. 22A-22F show results following administration of a MALT1 inhibitor. Here, “Cpd1” and Cpd2” as shown in FIGS. 22A-22F refer to REO-751 MALT1 inhibitor. FIGS. 22A and 22B show overall survival (OS) and progression-free survival (PFS) Kaplan Meier curves, respectively, in a murine model of sclerodermatous GVHD (scGVHD) following administration of a MALT1 inhibitor. […]

[9] = tested on: IL-2R signaling (pSTAT5); details: 1 μM, positive control
Method: Purified Tregs were expanded as indicated above. […] Tregs were then stimulated with 25 IU IL-2 (Peprotech) for 15 min, followed by fixation with 2% paraformaldehyde. […] Levels of pSTAT5 were analyzed on a BD LSRFortessa flow cytometer.
Next, the impact of MALT1i on IL2R signaling was investigated. IL-2R signaling results in phosphorylation of STAT5 (pSTAT5) and is dependent on JAK1/3. Therefore, a flow cytometric readout of pSTAT5 was used to measure IL-2R activity and the JAK1/3-inhibitor tofacitinib served as a positive control for inhibition of pSTAT5.

Structure (SMILES)	reduction in the Treg levels ([1]; 3 mg/kg dose, CIA rats) [%]	reduction in the Treg levels ([1]; 10 mg/kg dose, CIA rats) [%]	reduction in the Treg levels ([1]; 30 mg/kg dose, CIA rats) [%]	reduction in the clinical score ([2]; 3 mg/kg dose) [%]	reduction in the clinical score ([2]; 10 mg/kg dose) [%]	reduction in the clinical score ([2]; 30 mg/kg dose) [%]	log10AUC value at ~50% reduction in the clinical score ([2]; rat CIA model) [μg*hr/mL]	reduction of Treg levels [3] [%]	IC90 [4] [µM]	dose-dependent efficacy (FIG. 12A) ([2]; rat CIA model)	further results
CO[C@@H](C)c1c(Nc2ccc([C@H](N(C)C(=O)C3CCN(C(C)=O)CC3)C(F)(F)F)cc2)cnc2cc(Cl)nn12 [REO-076]	24	30	40	23	42	74	~1.85				log10AUC value at ~40% reduction in Treg levels ([1]; rat CIA model): ~2.25 μg*hr/mL
O=C(Nc1ccnc(C(F)(F)F)c1)c1cnn(-c2cccc3c(=O)[nH]ccc23)c1C(F)(F)F [REO-095]								32			
CO[C@@H](C)c1c(Nc2ccc([C@H](N(C)C(=O)C3CCS(=O)(=O)CC3)C(F)(F)F)cc2)cnc2cc(Cl)nn12 [REO-528]	3	36	37	24	59	74	~1.2		5.78	showed efficacy in a rat CIA model in a dose-dependent manner	dose-dependent reduction of Tregs (FIG. 12B) ([1]; rat CIA model): dose-dependent reduction of Tregs was observed; log10Cmax value at ~40% reduction in Treg levels ([1]; rat CIA model): ~3.9 ng/mL; log10Ctrough value at ~50% reduction in Treg levels ([1]; rat CIA model): ~2.6 ng/mL; qualitative Treg impact (FIG. 11) ([1]; rat CIA model): low Treg impact; log10Cmax value at ~50% reduction in the clinical score ([2]; rat CIA model): ~3.3 ng/mL; log10Ctrough value at ~50% reduction in the clinical score ([2]; rat CIA model): ~2.2 ng/mL; qualitative efficacy (FIG. 11) ([2]; rat CIA model): high efficacy
O=C(Nc1ccnc(C(F)(F)F)c1)Nc1cnn2ccc(Cl)c2c1C1CC1 [REO-703]				35	57	60	~1.2		4.95	showed efficacy in a rat CIA model in a dose-dependent manner	reduction in the Treg levels ([1]; CIA rats, 3, 10 and 30 mg/kg): none of the doses of REO-703 resulted in a statistically significant reduction; also recorded: did not exhibit reduction of Tregs
CO[C@@H](C)c1c(NC(=O)Nc2cnc(-n3nccn3)c(Cl)c2)cnc2cc(Cl)nn12 [REO-751]								76			difference in Treg with treatment [5]: No difference; concentration at 24 h [6]: 385 ng/mL; potency (IC50 values and Kd value) in comparison to REO-095 [7]: increased potency; mice achieving progression free survival [8]: 40%
C[C@@H]1CCN(C(=O)CC#N)C[C@@H]1N(C)c1ncnc2[nH]ccc12 [tofacitinib, reference compound]											reduction in the endpoint clinical score ([2]; 5 mg/kg dose): 75%; basal levels of pSTAT5 in Tregs [9]: reduced
